The structures appear in SMILES notation. Values joined by “and” are separate entries in the source; they are usually repeats but may differ in a detail not shown here. Equal entries are not always repeated.

The text below walks through data of patent US10925874B2, “Substituted pyrazolopyrimidines as glucocerebrosidase activators” (The United States of America, as Represented by the …, priority 2010, dated 2021).

For the experiment, the target named is T1, N370S glucocerebrosidase from human spleen homogenate (Homo sapiens, UniProt P04062, N409S).
T1 construct: N370S glucocerebrosidase from human spleen homogenate as the enzyme preparation; from tissue; host or cells: human spleen homogenate
T1 sequence (P04062 40-536 N409S): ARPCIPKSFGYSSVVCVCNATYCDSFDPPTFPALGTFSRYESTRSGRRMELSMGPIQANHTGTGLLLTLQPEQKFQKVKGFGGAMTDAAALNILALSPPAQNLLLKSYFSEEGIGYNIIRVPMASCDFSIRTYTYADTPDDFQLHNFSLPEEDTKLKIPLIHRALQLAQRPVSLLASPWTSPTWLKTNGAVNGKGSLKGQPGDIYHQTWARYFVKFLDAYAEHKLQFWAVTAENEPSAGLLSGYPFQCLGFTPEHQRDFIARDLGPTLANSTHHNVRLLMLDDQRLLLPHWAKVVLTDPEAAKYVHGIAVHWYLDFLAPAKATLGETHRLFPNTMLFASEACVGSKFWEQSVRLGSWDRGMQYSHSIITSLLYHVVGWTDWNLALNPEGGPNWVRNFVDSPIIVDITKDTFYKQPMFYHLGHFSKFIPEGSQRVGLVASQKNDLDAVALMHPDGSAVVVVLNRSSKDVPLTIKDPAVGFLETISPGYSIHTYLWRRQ
Description: qHTS fluorogenic enzyme assay for activators of N370S glucocerebrosidase (4-methylumbelliferyl-beta-D-glucopyranoside substrate). Type of experiment: biochemical. The settings on record: pH 5.0, 37° C. 40 min. An excerpt: qHTS Assay for Inhibitors and Activators of N370S glucocerebrosidase as a Potential Chaperone Treatment of Gaucher Disease: Primary Screen Confirmation
This is a fluorogenic enzyme assay with 4-methylumbelliferyl-beta-D-glucopyranoside as the substrate and N370S glucocerebrosidase from human spleen homogenate as the enzyme preparation. Upon the hydrolysis of this fluorogenic substrate, the resulting product, […] which can be detected by a standard fluorescence plate reader. Data were normalized to the controls for basal activity (without enzyme) and 100% activity (with enzyme). The AC50 values were determined from concentration-response data modeled with the standard Hill equation.
Human spleen homogenate is prepared as follows by homogenizing spleen with assay buffer containing 50 mM citric acid (titrated with potassium phosphate to pH 5.0), 100 mM potassium chloride, 10 mM sodium chloride, 1 mM magnesium chloride, 0.01% Tween-20. The protein concentration of the human spleen homogenate is approximated 1.35 ug/ul.
The assay is performed in 1536 well plates according to the following protocol. (1) 2 ul spleen homogenate ([…] final) is added to each well. (2) 23 nL test compound in DMSO solution is added to each well. The final concentration of compound in the test well is 0.5 nM to 58 uM. (3) 2 ul of substrate (1 mM final) are added to each well. (4) Incubate assay plates at 37° C. for 40 min. (5) Add 2 ul stop solution (1M NaOH and 1M Glycine mixture, pH 10) to each well. (6) Detect the assay plate in a ViewLux plate reader (PerkinElmer) using 365 nm excitation with emission at 440 nm.

Compound `CCc1ccc(NC(=O)c2cnn3c(C(F)F)cc(C)nc23)cc1` [MLS000708974-01, 7-(difluoromethyl)-N-(4-ethylphenyl)-5-methylpyrazolo[1,5-a]pyrimidine-3-carboxamide] gave an AC50 of 2.24 µM.

The compound `Cc1cc(C)n2ncc(C(=O)NCc3ccco3)c2n1` [NCGC00188759-01, N-(furan-2-ylmethyl)-5,7-dimethylpyrazolo[1,5-a]pyrimidine-3-carboxamide] registered an AC50 of 51.7 µM.

`CC(=O)c1cccc(NC(=O)c2cnn3c(C)cc(C)nc23)c1` [NCGC00188785-01, N-(3-acetylphenyl)-5,7-dimethylpyrazolo[1,5-a]pyrimidine-3-carboxamide]: the concentration at half-maximal activity (AC50) amounted to 32.6 µM.

Take `O=C(Nc1ccccc1Sc1ccccc1)c1cnn2c1NC(=C1CC1)C=C2C(F)F` [NCGC00182186-01, 5-cyclopropylidene-7-(difluoromethyl)-N-(2-(phenylthio)phenyl)-4,5-dihydropyrazolo[1,5-a]pyrimidine-3-carboxamide]: the AC50 was 13 µM and 7.08 µM.

`Cc1cc(-c2ccccc2)nc2c(C(=O)Nc3ccc4c(c3)CCC4)cnn12` [NCGC00229719-01, N-(2,3-dihydro-1H-inden-5-yl)-7-methyl-5-phenylpyrazolo[1,5-a]pyrimidine-3-carboxamide] had an AC50 of 8.19 µM.

Consider `Cc1cc(-c2ccccc2)nc2c(C(=O)NC3CCC(C(C)(C)C)CC3)cnn12` (stereo not shown) [NCGC00229707-01, N-(4-tert-butylcyclohexyl)-7-methyl-5-phenylpyrazolo[1,5-a]pyrimidine-3-carboxamide], for which the AC50 is 5.8 µM. This AC50 and that of the compound before are within 1.5-fold of each other.

As for `Cc1cccc(NC(=O)c2cnn3c(C)cc(C)nc23)c1` [NCGC00188771-01, 5,7-dimethyl-N-m-tolylpyrazolo[1,5-a]pyrimidine-3-carboxamide], the AC50 amounted to 6.51 µM.

The compound `Cc1cc(C)n2ncc(C(=O)NC3CCCCC3)c2n1` [NCGC00187971-01, N-cyclohexyl-5,7-dimethylpyrazolo[1,5-a]pyrimidine-3-carboxamide] showed an AC50 of 10.3 µM. This AC50 is about 1.6-fold higher than that of the compound before.

`C=C1C=C(C(F)F)n2ncc(C(=O)NCc3ccccc3OC)c2N1` [NCGC00182162-01, 7-(difluoromethyl)-N-(2-methoxybenzyl)-5-methylene-4,5-dihydropyrazolo[1,5-a]pyrimidine-3-carboxamide] yielded an AC50 of 14.1 µM.

In the case of `O=C(Nc1ccccc1Br)c1cnn2c1NC(=C1CC1)C=C2C(F)F` [NCGC00182188-01, N-(2-bromophenyl)-5-cyclopropylidene-7-(difluoromethyl)-4,5-dihydropyrazolo[1,5-a]pyrimidine-3-carboxamide], the activity was half-maximal at 12.6 µM (AC50).

As for `C=C1C=C(C(F)F)n2ncc(C(=O)Nc3ccc(C(C)CC)cc3)c2N1` (stereo not shown) [NCGC00182141-01, N-(4-sec-butylphenyl)-7-(difluoromethyl)-5-methylene-4,5-dihydropyrazolo[1,5-a]pyrimidine-3-carboxamide], half-maximal activity (AC50) was put at 2.51 µM.

The compound `Cc1ccc(NC(=O)c2cnn3c(C)cc(C)nc23)c(F)c1` [NCGC00188779-01, N-(2-fluoro-4-methylphenyl)-5,7-dimethylpyrazolo[1,5-a]pyrimidine-3-carboxamide] displayed an AC50 of 11.6 µM.

In turn, `O=C(Nc1ccc(Br)cc1F)c1cnn2c1NC(=C1CC1)C=C2C(F)F` [NCGC00182179-01, N-(4-bromo-2-fluorophenyl)-5-cyclopropylidene-7-(difluoromethyl)-4,5-dihydropyrazolo[1,5-a]pyrimidine-3-carboxamide] displayed an AC50 of 2.51 µM.

`C=C1C=C(C(F)F)n2ncc(C(=O)Nc3cccc(CC)c3)c2N1` [NCGC00182142-01, 7-(difluoromethyl)-N-(3-ethylphenyl)-5-methylene-4,5-dihydropyrazolo[1,5-a]pyrimidine-3-carboxamide] returned an AC50 of 10 µM. Compared with the last compound, the AC50 is about 4-fold higher.

Consider `Cc1cc(C)n2ncc(C(=O)Nc3ccc(Br)cc3)c2n1` [NCGC00188756-01, N-(4-bromophenyl)-5,7-dimethylpyrazolo[1,5-a]pyrimidine-3-carboxamide], for which the half-maximal activity concentration (AC50) stood at 2.06 µM.

Consider `C=C1C=C(C(F)F)n2ncc(C(=O)NCCc3ccccc3Cl)c2N1` [NCGC00182151-01, N-(2-chlorophenethyl)-7-(difluoromethyl)-5-methylene-4,5-dihydropyrazolo[1,5-a]pyrimidine-3-carboxamide], for which the activity was half-maximal at 31.6 µM (AC50). Compared with the last compound, the AC50 is about 15-fold higher.

With `Cc1cc(C)n2ncc(C(=O)Nc3ccc(Cl)c(Cl)c3)c2n1` [MLS000765493-01, N-(3,4-dichlorophenyl)-5,7-dimethylpyrazolo[1,5-a]pyrimidine-3-carboxamide], half-maximal activity (AC50) was put at 7.08 µM.

In the case of `CCc1ccc(NC(=O)c2cnn3c(-c4ccccc4)cc(C)nc23)cc1` [NCGC00229717-01, N-(4-ethylphenyl)-5-methyl-7-phenylpyrazolo[1,5-a]pyrimidine-3-carboxamide], half-maximal activity (AC50) was put at 9.19 µM.

`Cc1ccc(NC(=O)c2cnn3c2NC(=C2CC2)C=C3C(F)F)cc1C` [NCGC00182133-01, 5-cyclopropylidene-7-(difluoromethyl)-N-(3,4-dimethylphenyl)-4,5-dihydropyrazolo[1,5-a]pyrimidine-3-carboxamide] came in with an AC50 of 3.16 µM.

Regarding `C=C1C=C(C)n2ncc(C(=O)NCCCCCC)c2N1` [NCGC00182197-01, N-hexyl-7-methyl-5-methylene-4,5-dihydropyrazolo[1,5-a]pyrimidine-3-carboxamide], the activity was half-maximal at 15.8 µM (AC50).

In turn, `Cc1cc(C)n2ncc(C(=O)NCc3cccc(Cl)c3)c2n1` [NCGC00187965-01, N-(3-chlorobenzyl)-5,7-dimethylpyrazolo[1,5-a]pyrimidine-3-carboxamide] gave an AC50 of 18.3 µM. This AC50 and that of the compound before are within 1.5-fold of each other.

Regarding `C=C1C=C(C(F)F)n2ncc(C(=O)NCCc3ccc(Cl)cc3)c2N1` [NCGC00182159-01, N-(4-chlorophenethyl)-7-(difluoromethyl)-5-methylene-4,5-dihydropyrazolo[1,5-a]pyrimidine-3-carboxamide], the AC50 is 15.8 µM.

In turn, `O=C(NC1CCCC1)c1cnn2c1NC(=C1CC1)C=C2C(F)F` [NCGC00182170-01, N-cyclopentyl-5-cyclopropylidene-7-(difluoromethyl)-4,5-dihydropyrazolo[1,5-a]pyrimidine-3-carboxamide] displayed an AC50 of 12.6 µM. The AC50 values of the last two compounds are within 1.5-fold of each other.

For the compound `Cc1ccc(NC(=O)c2cnn3c(C)cc(C)nc23)c(C)c1` [NCGC00188778-01, N-(2,4-dimethylphenyl)-5,7-dimethylpyrazolo[1,5-a]pyrimidine-3-carboxamide], half-maximal activity (AC50) was put at 13 µM. This AC50 and that of the compound before are within 1.5-fold of each other.

With `C=C1C=C(C(F)F)n2ncc(C(=O)Nc3ccc(N(CC)CC)cc3)c2N1` [NCGC00182154-01, N-(4-(diethylamino)phenyl)-7-(difluoromethyl)-5-methylene-4,5-dihydropyrazolo[1,5-a]pyrimidine-3-carboxamide], the activity was half-maximal at 11.2 µM (AC50).

For `C=C1C=C(C(F)F)n2ncc(C(=O)N3CCN(c4ccccc4)CC3)c2N1` [NCGC00182152-01, (7-(difluoromethyl)-5-methylene-4,5-dihydropyrazolo[1,5-a]pyrimidin-3-yl)(4-phenylpiperazin-1-yl)methanone], the AC50 was 31.6 µM. This AC50 is about 2.8-fold higher than that of the compound before.

As for `Cc1cc(C)n2ncc(C(=O)Nc3ccccc3)c2n1` [NCGC00187975-01, 5,7-dimethyl-N-phenylpyrazolo[1,5-a]pyrimidine-3-carboxamide], the AC50 is 8.19 µM.

In turn, `CCc1ccc(NC(=O)c2cnn3c(C)cc(-c4ccccc4)nc23)cc1` [NCGC00229714-01, N-(4-ethylphenyl)-7-methyl-5-phenylpyrazolo[1,5-a]pyrimidine-3-carboxamide] registered an AC50 of 13 µM.

`Cc1cc(C)n2ncc(C(=O)Nc3ccc(F)cc3)c2n1` [NCGC00188766-01, N-(4-fluorophenyl)-5,7-dimethylpyrazolo[1,5-a]pyrimidine-3-carboxamide] gave an AC50 of 5.8 µM.

The compound `COc1ccc(NC(=O)c2cnn3c(C)cc(C)nc23)c(OC)c1` [NCGC00188781-01, N-(2,4-dimethoxyphenyl)-5,7-dimethylpyrazolo[1,5-a]pyrimidine-3-carboxamide] displayed an AC50 of 25.9 µM.

For the compound `Cc1cc(-c2ccccc2)nc2c(C(=O)Nc3ccc(Cl)c(Cl)c3)cnn12` [NCGC00229715-01, N-(3,4-dichlorophenyl)-7-methyl-5-phenylpyrazolo[1,5-a]pyrimidine-3-carboxamide], the AC50 was determined as 6.51 µM. This AC50 is about 4-fold lower than that of the compound before.
